Laboratory results reported in patent US20150010545A1 (KADMON CORPORATION, LLC, priority 2011, published 2015).
pIC50: −log10 of the molar value. Values belong to the molecule of their own block, whether it stands above or below them.

How the values were obtained:
EGFR = EGFR (Homo sapiens, UniProt P00533); assay: EGF-induced EGFR phosphorylation in A431 tumor xenografts in mice; type: in vivo
JIMT-1 cells = assay: JIMT-1 cell proliferation assay (CellTiter 96 AQueous); type: cell-based; details: Homo sapiens, 72 hours
HCC1954 cells = assay: HCC1954 cell proliferation assay (CellTiter 96 AQueous); type: cell-based; details: Homo sapiens, 72 hours
[1] = test system: MDA-MB-231 tumor xenografts; assay: MDA-MB-231 xenografts, 14-day dosing: tumor growth, necrosis, CD31, Ki67; type: in vivo, human; details: fourteen days; for CD31 Analysis MVC (mean vessel count) / Ki67 Expression % of Cells / Necrosis % increase: mean (SD)
Description: Anti-angiogenic effects of EXEL-7647 were also studied in vivo. Tumor xenografts derived from the human breast cancer cell line MDA-MB-231 were established in athymic female mice and allowed to reach a total weight of 100 mg. The mice were then treated orally on fourteen consecutive days with doses of 10, 30 or 100 mg/kg of EXEL-7647. The tumors were harvested and their weights were measured after the last dosage had been administered. Tumors derived from mice treated with vehicle alone served as negative controls. […] A statistically significant increase in tumor necrosis was not observed at the lower dose of 10 mg/kg in this model.

[2] = test system: MDA-MB-231 tumor xenografts; assay: MDA-MB-231 xenograft growth, up to 28-day dosing; type: in vivo, human
Description: The ability of EXEL-7647 to inhibit the growth of tumors derived from the human breast cancer cell line MDA-MB-231 was validated as follows. Tumor xenografts derived from MDA-MB-231 cells were established in athymic female mice and allowed to reach a total weight of 100 mg. The mice were then treated orally on up to twenty-eight consecutive days with doses of 10, 30 or 100 mg/kg of EXEL-7647. The tumors were harvested on specific days after treatment with XL647 had begun and their weights were measured, as indicated in FIG. 7. Tumors derived from mice treated with vehicle alone served as negative controls.

[3] = cytotoxicity on HMVECs, Alamar blue staining; details: human, human microvascular endothelial cells (HMVECs)
BT474 tumor xenografts = assay: BT474 tumor xenograft growth in athymic nude mice; type: in vivo, human; details: oral, three consecutive days
Description: The human breast cancer cell line BT474 expresses high levels of ErbB2 (Her2), a significant fraction of which is constitutively phosphorylated even in the absence of an exogenous ligand. The phosphorylation of ErbB2 is a measure of its activity. Athymic nude mice bearing tumor xenografts derived from the human breast cancer cell line BT474 were treated orally on three consecutive days with 3, 10, 30 or 100 mg/kg of EXEL-7647. The tumors were harvested 1 hr after the final dose was administered and their weights were measured.

ErbB2 (Her2) = ErbB2 (Her2) (Homo sapiens, UniProt P04626); assay: ErbB2 phosphorylation in BT474 tumor xenografts in mice; type: in vivo
Sequence of ErbB2 (Her2) (P04626 23-1255): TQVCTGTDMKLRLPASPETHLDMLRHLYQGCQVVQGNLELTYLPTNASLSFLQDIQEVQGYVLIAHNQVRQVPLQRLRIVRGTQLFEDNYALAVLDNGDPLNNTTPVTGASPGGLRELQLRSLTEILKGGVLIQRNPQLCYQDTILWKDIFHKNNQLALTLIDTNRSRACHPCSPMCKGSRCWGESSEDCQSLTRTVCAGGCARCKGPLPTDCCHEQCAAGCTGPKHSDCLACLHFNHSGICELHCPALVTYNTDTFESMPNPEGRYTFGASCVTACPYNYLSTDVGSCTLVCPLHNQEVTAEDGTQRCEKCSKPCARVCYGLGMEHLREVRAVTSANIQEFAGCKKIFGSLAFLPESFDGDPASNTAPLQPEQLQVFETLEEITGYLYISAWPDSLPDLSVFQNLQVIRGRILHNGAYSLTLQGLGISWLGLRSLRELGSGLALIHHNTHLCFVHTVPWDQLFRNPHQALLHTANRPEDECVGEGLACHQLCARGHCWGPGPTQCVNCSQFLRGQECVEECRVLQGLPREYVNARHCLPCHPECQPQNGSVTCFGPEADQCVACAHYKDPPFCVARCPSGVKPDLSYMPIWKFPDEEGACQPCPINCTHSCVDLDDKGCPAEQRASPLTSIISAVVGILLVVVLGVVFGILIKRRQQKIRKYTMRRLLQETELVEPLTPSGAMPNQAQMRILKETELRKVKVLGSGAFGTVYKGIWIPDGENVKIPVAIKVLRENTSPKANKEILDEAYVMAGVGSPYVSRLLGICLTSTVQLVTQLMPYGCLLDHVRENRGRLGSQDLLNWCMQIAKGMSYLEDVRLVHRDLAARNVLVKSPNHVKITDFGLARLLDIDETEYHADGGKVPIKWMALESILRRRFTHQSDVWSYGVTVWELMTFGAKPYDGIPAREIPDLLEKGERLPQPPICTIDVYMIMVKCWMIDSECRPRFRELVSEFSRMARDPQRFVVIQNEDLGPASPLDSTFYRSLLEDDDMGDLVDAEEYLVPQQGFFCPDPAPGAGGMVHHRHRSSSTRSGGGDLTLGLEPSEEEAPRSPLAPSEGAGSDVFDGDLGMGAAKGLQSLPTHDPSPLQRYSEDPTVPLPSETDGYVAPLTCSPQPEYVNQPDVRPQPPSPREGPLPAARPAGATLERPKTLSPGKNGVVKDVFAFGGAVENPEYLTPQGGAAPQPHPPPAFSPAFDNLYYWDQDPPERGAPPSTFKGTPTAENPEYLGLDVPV

HMVECs = details: human
EphB4 = biological target: T1, EphB4 (Homo sapiens, UniProt P54760); assay: EphB4 phosphorylation in HCT116/EphB4 xenografts in mice; type: in vivo
T1 construct: expressed in transfected cells; host or cells: HCT116 (human colon carcinoma), grown as xenografts in mice
T1 sequence (P54760 16-987): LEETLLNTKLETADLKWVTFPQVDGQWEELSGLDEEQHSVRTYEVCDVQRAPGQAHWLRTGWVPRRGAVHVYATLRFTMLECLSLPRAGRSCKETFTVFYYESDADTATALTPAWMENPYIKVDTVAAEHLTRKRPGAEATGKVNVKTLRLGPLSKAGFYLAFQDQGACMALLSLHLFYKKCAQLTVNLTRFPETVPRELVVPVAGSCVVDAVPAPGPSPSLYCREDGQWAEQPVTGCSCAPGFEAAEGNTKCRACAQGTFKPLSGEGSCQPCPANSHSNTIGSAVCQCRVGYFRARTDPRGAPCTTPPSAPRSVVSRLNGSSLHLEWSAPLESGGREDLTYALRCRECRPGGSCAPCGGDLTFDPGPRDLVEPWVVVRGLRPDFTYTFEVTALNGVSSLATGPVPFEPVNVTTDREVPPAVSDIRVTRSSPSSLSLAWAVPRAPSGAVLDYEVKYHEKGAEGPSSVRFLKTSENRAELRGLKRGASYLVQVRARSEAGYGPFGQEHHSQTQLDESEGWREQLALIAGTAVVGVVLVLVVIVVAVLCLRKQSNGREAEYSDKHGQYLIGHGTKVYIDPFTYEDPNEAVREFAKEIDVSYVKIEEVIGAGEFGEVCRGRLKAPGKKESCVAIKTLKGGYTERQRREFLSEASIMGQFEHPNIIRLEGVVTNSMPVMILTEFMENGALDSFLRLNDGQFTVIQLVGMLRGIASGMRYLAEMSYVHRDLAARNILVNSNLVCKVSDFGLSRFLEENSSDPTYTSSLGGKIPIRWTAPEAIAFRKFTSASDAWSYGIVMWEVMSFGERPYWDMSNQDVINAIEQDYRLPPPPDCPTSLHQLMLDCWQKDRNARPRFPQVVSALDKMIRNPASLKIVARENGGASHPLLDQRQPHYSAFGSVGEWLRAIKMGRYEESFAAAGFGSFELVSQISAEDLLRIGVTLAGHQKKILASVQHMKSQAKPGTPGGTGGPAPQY
Text: The ability of EXEL-7647 to inhibit the activity of the EphB4 receptor (determined by measuring the receptor's level of phosphorylation) was validated as follows. A cell line expressing high levels of EphB4 was derived by transfecting the human colon carcinoma line HCT116 with a drug selectable marker and an expression vector encoding EphB4. The resulting EphB4 expressing cells (HCT116/EphB4) grow as xenografts in immunocompromised mice. […] Attempts to further stimulate EphB4-phosphorylation by intravenous or intratumoral injection of […] were not successful (data not shown).
Mice bearing HCT116/EphB4 xenografts were dosed orally on three consecutive days with 3, 10, 30 or 100 mg/kg EXEL-7647. Tumors were harvested 1 hr after the final dose and assayed individually or in treatment groups for total and phospho-EphB4 levels by standard Western blotting (FIG. 5, left panel). Tumors from mice treated with vehicle alone served as the negative control. The detection of actin served as a control for protein integrity and concentration.
The plasma concentrations of EXEL-7647 in the mice carrying the analyzed tumors (see above) were determined as well and correlated with the corresponding reductions of phospho-EPHB4 levels (FIG. 5, right panel).

[4] = test system: FAK (focal adhesion kinase); assay: FAK (PY861) phosphorylation in DLD1-PTK2 cells, Western blot; type: cell-based; details: one hour, serum-free DMEM, read-out: IC50 of inhibition of FAK phosphorylation at tyrosine 861
Description: (§1) Inhibition of SRC kinase activity by EXEL-7647 was measured using in vitro kinase assays. […] In addition, the effect of EXEL-7647 on the phosphorylation of the […] protein FAK (focal adhesion kinase) was measured in cell culture (FIG. 1). Specifically, DLD1-PTK2 cells were treated with EXEL-7647 at concentrations of 1.6, 4.7, 14, 41, 123, 370, 1111, 3333 or 10,000 nM for one hour in serum-free DMEM and harvested. The phosphorylation status of the tyrosine at amino acid position 861 of the FAK protein (“FAK-PY861”) in the treated cells was then determined by standard Western blotting using phosphorylation-specific antibodies, as indicated in FIG. 1. The Western blot was quantified using a Typhoon scanned image and ImageQuant software and the IC50 value for EXEL-7647-mediated inhibition of FAK-phosphorylation calculated. […] The kinase inhibitor staurosporine (EXEL 00878128) was used as a positive control. […] The identifier EXEL-02377647:9 in FIG. 1 refers to compound EXEL-7647.

[5] = test system: murine MS1 endothelial cells; assay: scratch assay, VEGF-stimulated endothelial cell migration
[6] = test system: human microvascular endothelial cells (HMVECs); assay: VEGF-induced endothelial tubule formation assay; type: cell-based; details: HMVEC; HMVECs on human diploid fibroblasts, CD31 staining; read-out: IC50 of inhibition of VEGF-induced tubule formation
Text: When plated on a confluent layer of normal human diploid fibroblasts, human microvascular endothelial cells (HMVECs) form extensive networks of tubules in response to VEGF over a 7-10 day period.

KDR = biological target: T2, KDR (Mus musculus, UniProt P35918); assay: VEGF-induced KDR phosphorylation in mouse lungs; type: in vivo, mice; details: mouse lung lysate pools; read-out: IC50 of decrease of VEGF-induced KDR receptor phosphorylation (plasma concentration)
T2 construct: from tissue; host or cells: mouse lung
T2 sequence (P35918 20-1345): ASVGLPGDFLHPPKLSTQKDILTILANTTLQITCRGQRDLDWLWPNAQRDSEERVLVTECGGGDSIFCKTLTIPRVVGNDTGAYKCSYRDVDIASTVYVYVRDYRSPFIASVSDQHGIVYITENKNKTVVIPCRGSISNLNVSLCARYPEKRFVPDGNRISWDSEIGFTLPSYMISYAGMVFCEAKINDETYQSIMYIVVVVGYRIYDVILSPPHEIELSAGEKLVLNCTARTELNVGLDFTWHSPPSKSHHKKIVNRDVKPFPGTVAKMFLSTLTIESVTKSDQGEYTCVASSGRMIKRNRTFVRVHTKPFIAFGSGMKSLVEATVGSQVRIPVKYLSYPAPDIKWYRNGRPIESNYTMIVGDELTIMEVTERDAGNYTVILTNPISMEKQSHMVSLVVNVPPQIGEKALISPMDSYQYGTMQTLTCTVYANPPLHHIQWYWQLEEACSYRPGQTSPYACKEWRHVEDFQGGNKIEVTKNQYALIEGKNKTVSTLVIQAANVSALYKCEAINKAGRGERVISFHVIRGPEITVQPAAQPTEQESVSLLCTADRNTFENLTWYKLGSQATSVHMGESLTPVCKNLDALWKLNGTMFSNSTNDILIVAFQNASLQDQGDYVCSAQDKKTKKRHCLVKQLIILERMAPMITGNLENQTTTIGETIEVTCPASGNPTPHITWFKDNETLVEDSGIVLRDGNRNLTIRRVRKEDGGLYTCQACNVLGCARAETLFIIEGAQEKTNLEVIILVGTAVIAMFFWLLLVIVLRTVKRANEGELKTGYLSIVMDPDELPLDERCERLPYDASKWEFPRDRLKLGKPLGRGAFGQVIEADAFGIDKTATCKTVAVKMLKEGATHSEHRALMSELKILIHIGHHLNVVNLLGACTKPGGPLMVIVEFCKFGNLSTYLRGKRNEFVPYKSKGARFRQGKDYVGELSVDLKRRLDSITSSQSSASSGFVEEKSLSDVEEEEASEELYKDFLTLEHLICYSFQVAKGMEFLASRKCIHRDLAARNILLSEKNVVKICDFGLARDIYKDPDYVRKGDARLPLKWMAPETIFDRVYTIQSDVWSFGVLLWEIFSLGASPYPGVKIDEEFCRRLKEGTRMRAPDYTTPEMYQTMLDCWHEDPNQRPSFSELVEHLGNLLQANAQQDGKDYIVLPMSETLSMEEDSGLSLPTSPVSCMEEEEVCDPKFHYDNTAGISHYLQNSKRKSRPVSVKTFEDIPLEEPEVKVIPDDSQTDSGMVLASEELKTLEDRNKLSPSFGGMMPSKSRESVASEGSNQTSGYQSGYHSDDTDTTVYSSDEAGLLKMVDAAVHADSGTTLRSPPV

Src [7] = biological target: T3, Src (Homo sapiens, UniProt P12931); assay: in vitro SRC kinase assay; type: biochemical; details: in vitro kinase assays; read-out: IC50 of inhibition of SRC kinase activity
T3 sequence (P12931 whole entry): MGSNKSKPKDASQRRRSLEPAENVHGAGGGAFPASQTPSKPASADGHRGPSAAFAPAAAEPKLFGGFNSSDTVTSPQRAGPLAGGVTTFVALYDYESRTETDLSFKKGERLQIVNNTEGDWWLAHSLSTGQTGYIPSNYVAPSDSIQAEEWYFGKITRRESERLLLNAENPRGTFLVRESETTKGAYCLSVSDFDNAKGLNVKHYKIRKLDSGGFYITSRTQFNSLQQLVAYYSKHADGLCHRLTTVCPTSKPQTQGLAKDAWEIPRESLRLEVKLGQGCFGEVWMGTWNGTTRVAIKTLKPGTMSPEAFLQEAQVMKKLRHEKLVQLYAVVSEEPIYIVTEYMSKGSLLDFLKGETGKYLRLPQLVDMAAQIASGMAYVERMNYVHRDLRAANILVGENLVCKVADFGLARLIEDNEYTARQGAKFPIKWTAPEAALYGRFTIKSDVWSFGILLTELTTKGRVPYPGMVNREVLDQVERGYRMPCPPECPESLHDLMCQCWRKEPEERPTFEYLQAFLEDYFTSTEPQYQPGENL
Description: as §1

Src [8] = biological target: T3, Src; details: both cell lines (JIMT-1, HCC1954), 18 hours of treatment

Sequence of EGFR (P00533 25-1210): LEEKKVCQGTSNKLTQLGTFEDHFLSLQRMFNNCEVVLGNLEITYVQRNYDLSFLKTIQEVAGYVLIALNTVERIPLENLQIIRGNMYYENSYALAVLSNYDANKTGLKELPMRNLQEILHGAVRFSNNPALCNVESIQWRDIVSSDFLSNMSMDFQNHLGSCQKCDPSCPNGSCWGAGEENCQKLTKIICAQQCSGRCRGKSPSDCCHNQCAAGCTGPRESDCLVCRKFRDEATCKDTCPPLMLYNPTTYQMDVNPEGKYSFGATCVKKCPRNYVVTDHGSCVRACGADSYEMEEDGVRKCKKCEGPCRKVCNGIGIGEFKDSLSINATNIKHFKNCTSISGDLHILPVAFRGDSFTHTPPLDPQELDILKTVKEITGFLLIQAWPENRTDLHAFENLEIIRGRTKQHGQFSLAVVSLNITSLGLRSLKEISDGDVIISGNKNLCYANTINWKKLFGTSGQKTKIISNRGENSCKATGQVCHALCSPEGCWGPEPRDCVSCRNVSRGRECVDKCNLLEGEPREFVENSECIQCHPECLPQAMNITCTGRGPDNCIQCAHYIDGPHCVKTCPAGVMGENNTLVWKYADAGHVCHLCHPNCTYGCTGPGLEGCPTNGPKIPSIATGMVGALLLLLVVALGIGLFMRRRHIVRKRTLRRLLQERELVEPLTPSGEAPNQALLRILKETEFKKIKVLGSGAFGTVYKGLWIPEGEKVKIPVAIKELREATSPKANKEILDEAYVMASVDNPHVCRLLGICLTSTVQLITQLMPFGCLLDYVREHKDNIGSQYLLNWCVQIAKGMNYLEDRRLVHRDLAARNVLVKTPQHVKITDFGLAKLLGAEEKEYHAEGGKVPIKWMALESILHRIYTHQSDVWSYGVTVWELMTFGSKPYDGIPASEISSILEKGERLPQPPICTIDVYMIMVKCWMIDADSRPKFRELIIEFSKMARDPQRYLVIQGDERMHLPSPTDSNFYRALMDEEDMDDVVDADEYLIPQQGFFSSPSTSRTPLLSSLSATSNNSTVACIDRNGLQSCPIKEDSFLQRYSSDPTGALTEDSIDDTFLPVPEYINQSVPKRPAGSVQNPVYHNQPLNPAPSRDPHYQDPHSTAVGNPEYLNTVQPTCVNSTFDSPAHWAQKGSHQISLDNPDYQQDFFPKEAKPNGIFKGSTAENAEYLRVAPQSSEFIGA

reduction of EGF-induced EGFR-phosphorylation (EGFR; 100 mg/kg oral, vs positive control): about 90% | pIC50 (EGFR; read-out: IC50 plasma concentration for inhibition of EGFR phosphorylation in tumors): 6.14 | reduction of phospho-ErbB2 (ErbB2 (Her2); 100 mg/kg oral on three consecutive days, vs vehicle): approximately 70% | pIC50 (ErbB2 (Her2); BT474 xenografts, correlated with plasma concentration, read-out: IC50 of inhibition of phospho-ErbB2 accumulation in tumors (plasma concentration)): 5.45 | reduction of phospho-ErbB2 (ErbB2 (Her2); plasma concentration of about 5.37 μM): approximately 69% | reduction of phospho-EphB4 (EphB4; 100 mg/kg oral on three consecutive days): approximately 70% | pIC50 (EphB4; HCT116/EphB4 xenografts, read-out: plasma concentration predicted for 50% inhibition of EphB4-phosphorylation): ~5.62 | reduction of EphB4 phosphorylation in tumors (EphB4; plasma concentration of about 3 μM): approximately 70% | pIC50 [4]: ~6.00 | pIC50 ([5]; read-out: IC50 of inhibition of cellular migration into the scratch, VEGF-stimulated MS1 cells, 24 hrs, six-point dose response): ~6.92 | pIC50 (KDR): ~5.91 | pIC50 (Src [7]): 7.99
Compound: COc1cc2c(Nc3ccc(Cl)c(Cl)c3F)ncnc2cc1OCC1C[C@@H]2CN(C)C[C@@H]2C1 (stereo partly drawn) [EXEL-7647, N-(3,4-dichloro-2-fluorophenyl)-7-({[(3aR,6aS)-2-methyloctahydrocyclopenta[c]pyrrol-5-yl]methyl}oxy)-6-(methyloxy)quinazolin-4-amine]
inhibition at 0.2 µM (JIMT-1 cells; EXEL-7647 0.2 μM alone): 15.7% | inhibition at 0.5 µM (JIMT-1 cells; EXEL-7647 0.5 μM alone): 20.3% | inhibition at 1 µM (JIMT-1 cells; EXEL-7647 1.0 μM alone): 22.7% | inhibition at 2 µM (JIMT-1 cells; EXEL-7647 2.0 μM alone): 28.8% | inhibition at 5 µM (JIMT-1 cells; EXEL-7647 5.0 μM alone): 81.7% | inhibition at 0.2 µM (HCC1954 cells; EXEL-7647 0.2 μM alone): 22.5% | inhibition at 0.5 µM (HCC1954 cells; EXEL-7647 0.5 μM alone): 32.6% | inhibition at 1 µM (HCC1954 cells; EXEL-7647 1.0 μM alone): 38.1% | inhibition at 2 µM (HCC1954 cells; EXEL-7647 2.0 μM alone): 43.6% | inhibition at 5 µM (HCC1954 cells; EXEL-7647 5.0 μM alone): 80.4% | CD31 Analysis % Reduction ([1]; 10 mg/kg oral): 30.23% | Ki67 Expression % Reduction ([1]; 10 mg/kg oral): 39.6% | Necrosis fold increase ([1]; 10 mg/kg oral): 1.6 fold | CD31 Analysis MVC (mean vessel count) ([1]; 10 mg/kg oral): 12.93 (2.3) | Ki67 Expression % of Cells ([1]; 10 mg/kg oral): 29.8 (13.3) % | Necrosis % increase ([1]; 10 mg/kg oral): 25.0 (14.2) % | CD31 Analysis % Reduction ([1]; 30 mg/kg oral): 55.83% | Ki67 Expression % Reduction ([1]; 30 mg/kg oral): 42.6% | Necrosis fold increase ([1]; 30 mg/kg oral): 2.0 fold | CD31 Analysis MVC (mean vessel count) ([1]; 30 mg/kg oral): 8.18 (1.4) | Ki67 Expression % of Cells ([1]; 30 mg/kg oral): 28.3 (10.4) % | Necrosis % increase ([1]; 30 mg/kg oral): 30.6 (11.3) % | CD31 Analysis % Reduction ([1]; 100 mg/kg oral): 91.23% | Ki67 Expression % Reduction ([1]; 100 mg/kg oral): 49.6% | Necrosis fold increase ([1]; 100 mg/kg oral): 4.5 fold | CD31 Analysis MVC (mean vessel count) ([1]; 100 mg/kg oral): 1.625 (1) | Ki67 Expression % of Cells ([1]; 100 mg/kg oral): 24.87 (4.9) % | Necrosis % increase ([1]; 100 mg/kg oral): 71.1 (8.1) % | tumor weight at end of study ([1]; 100 mg/kg oral, tumor weight at start 100.6±8.7 mg): 112 ± 16.2 mg | final tumor weight ([2]; 100 mg/kg oral, up to twenty-eight days, starting tumor weight 94±9 mg): 117 ± 33 mg | calculated ED50 of inhibition of tumor growth ([2]; MDA-MB-231 xenografts, oral, up to twenty-eight consecutive days): 22.9 mg of XL647 per kg body weight | pIC50 [3]: ~5.89 | calculated ED50 of inhibition of tumor growth (BT474 tumor xenografts): 30 mg EXEL-7647 per kg of body weight | cytotoxicity IC50 relative to IC50 of tubule formation inhibition (HMVECs): approximately 5 fold | cytotoxicity in scratch assay ([5]; concentrations below 1.1 μM): No evidence for cytotoxicity | pIC50 [6]: ~6.66

able to inhibit SRC activity (SRC phosphorylation) (Src [8]): not
Compound: CS(=O)(=O)CCNCc1ccc(-c2ccc3ncnc(Nc4ccc(OCc5cccc(F)c5)c(Cl)c4)c3c2)o1 [lapatinib]
